Laboratory results: ChEMBL document CHEMBL5380860, “Design, Synthesis, and Antitumor Activity of Potent and Selective EGFR L858R/T790M Inhibitors and Identification of a Combination Therapy to Overcome Acquired Resistance in Models of Non-small-cell Lung Cancer” (J Med Chem, 2023)

What was measured:
[1] = Selectivity ratio of IC50 for cytotoxicity against human A-431 cells harboring wild type EGFR to IC50 for antiproliferative activity against human NCI-H1975 cells harboring EGFR L858R/T790M mutant; format: toxicity, cell-based; settings: read-out: Ratio IC50
[2] = Cytotoxicity against human A549 cells harboring wild type EGFR assessed as reduction in cell viability measured after 72 hrs by MTT assay; format: toxicity, cell-based
[3] = tested on: NCI-H1975; assay: Antiproliferative activity against human NCI-H1975 cells harboring EGFR L858R/T790M mutant assessed as reduction in cell viability measured after 72 hrs by MTT assay; format: functional, cell-based; settings: NCI-H1975, 72 h
[4] = Selectivity ratio of IC50 for cytotoxicity against human A549 cells harboring wild type EGFR to IC50 for antiproliferative activity against human NCI-H1975 cells harboring EGFR L858R/T790M mutant; format: toxicity, cell-based; settings: read-out: Ratio IC50
[5] = Cytotoxicity against human A-431 cells harboring wild type EGFR assessed as reduction in cell viability measured after 72 hrs by MTT assay; format: toxicity, cell-based
[6] = tested on: HCC827; assay: Antiproliferative activity against human HCC827 cells harboring EGFR exon del 19 mutant assessed as reduction in cell viability measured after 72 hrs by MTT assay; format: functional, cell-based; settings: HCC827, 72 h
[7] = target: Epidermal growth factor receptor (Homo sapiens, UniProt P00533, L858R/T790M); assay: Inhibition of human partial length EGFR (R669 to V1011 residues) L858R/T790M mutant expressed in mammalian expression system by KINOMEscan analysis
[8] = target: Epidermal growth factor receptor (Homo sapiens, UniProt P00533); assay: Inhibition of human wild type partial length EGFR (R669 to V1011 residues) expressed in bacterial expression system by KINOMEscan analysis; format: toxicity
Chain of Epidermal growth factor receptor (Homo sapiens, UniProt P00533) (P00533 whole entry, the tested form may be a part): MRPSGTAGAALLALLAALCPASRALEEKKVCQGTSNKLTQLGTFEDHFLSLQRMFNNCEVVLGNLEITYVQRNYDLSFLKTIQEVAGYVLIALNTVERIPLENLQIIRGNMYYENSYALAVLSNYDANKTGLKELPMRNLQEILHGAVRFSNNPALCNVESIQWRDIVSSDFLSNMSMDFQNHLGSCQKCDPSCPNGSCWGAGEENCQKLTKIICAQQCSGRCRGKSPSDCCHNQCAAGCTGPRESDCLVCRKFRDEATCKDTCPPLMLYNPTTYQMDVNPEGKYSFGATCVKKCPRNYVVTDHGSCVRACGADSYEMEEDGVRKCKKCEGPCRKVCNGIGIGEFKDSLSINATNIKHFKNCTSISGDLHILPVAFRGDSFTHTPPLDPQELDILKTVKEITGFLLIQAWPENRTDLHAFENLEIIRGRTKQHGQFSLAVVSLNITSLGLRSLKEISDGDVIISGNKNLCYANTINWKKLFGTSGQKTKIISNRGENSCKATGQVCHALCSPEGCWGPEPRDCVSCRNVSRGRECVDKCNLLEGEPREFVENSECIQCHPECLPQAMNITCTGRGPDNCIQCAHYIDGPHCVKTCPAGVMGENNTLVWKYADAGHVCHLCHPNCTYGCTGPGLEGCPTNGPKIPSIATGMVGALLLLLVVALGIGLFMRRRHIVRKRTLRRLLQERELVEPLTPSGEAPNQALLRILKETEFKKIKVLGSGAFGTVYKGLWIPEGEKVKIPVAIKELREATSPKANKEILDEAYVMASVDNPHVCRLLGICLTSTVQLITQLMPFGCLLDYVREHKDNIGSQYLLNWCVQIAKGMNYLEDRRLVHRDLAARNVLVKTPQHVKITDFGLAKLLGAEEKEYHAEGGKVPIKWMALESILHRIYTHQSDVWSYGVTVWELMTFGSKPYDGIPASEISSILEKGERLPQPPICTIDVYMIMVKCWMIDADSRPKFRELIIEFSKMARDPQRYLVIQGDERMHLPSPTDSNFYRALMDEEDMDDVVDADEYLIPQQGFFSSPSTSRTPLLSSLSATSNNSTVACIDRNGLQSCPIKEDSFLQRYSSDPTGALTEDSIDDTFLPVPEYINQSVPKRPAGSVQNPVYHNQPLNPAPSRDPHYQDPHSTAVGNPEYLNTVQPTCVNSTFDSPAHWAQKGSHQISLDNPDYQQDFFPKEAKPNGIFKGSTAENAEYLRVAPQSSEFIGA

Chain of Epidermal growth factor receptor (Homo sapiens, UniProt P00533, L858R/T790M) (P00533 25-1210 T790M/L858R limits assumed): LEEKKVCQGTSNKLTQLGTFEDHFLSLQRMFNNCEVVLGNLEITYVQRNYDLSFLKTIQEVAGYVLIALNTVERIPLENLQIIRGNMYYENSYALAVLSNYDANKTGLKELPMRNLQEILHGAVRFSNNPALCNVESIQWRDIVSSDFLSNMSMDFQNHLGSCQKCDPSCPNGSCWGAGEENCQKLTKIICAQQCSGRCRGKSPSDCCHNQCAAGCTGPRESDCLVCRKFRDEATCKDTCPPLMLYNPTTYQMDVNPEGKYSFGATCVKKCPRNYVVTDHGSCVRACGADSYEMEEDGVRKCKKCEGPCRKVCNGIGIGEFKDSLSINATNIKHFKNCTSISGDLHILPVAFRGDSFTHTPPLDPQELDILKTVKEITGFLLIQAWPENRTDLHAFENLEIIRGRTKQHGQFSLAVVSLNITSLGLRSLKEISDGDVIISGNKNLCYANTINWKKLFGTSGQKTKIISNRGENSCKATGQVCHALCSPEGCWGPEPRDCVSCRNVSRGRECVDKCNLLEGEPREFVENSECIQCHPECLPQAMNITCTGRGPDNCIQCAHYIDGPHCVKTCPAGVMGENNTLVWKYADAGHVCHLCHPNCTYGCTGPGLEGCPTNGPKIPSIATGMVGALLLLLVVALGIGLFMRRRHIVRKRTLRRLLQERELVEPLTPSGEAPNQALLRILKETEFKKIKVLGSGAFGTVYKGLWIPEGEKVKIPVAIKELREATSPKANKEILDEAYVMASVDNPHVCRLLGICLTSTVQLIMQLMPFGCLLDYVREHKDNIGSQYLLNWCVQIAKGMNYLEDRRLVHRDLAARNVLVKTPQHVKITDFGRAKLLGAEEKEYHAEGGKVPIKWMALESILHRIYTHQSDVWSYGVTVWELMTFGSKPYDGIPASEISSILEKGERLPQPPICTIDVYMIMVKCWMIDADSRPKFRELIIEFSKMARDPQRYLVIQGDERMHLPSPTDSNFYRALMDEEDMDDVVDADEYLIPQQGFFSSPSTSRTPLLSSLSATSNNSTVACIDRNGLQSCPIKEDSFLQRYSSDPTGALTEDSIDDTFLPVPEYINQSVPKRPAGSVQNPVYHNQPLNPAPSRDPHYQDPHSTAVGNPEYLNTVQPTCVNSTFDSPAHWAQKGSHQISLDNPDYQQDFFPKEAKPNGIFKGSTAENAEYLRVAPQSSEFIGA

Row | SMILES | selectivity ratio [1] | IC50 at 72 h [2] | IC50 [3] | selectivity ratio [4] | IC50 at 72 h [5] | IC50 [6] | IC50 [7] | IC50 [8]
1 | C=CC(=O)Nc1cccc(Nc2nc(Nc3ccc(N4CCN(C)CC4)cc3)nc3ccc(Cl)cc23)c1 | 73 | 0.816 µM | 0.017 µM | 48 | 1.24 µM | 0.013 µM | – | –
2 | C=CC(=O)Nc1cccc(Nc2nc(Nc3ccc(N(C)C)cc3)nc3ccc(Cl)cc23)c1 | – | > 10 µM | 2.3 µM | – | – | – | 1.8 µM | > 10 µM
3 | C=CC(=O)Nc1cccc(Nc2nc(Nc3ccc(N4CCN(CC)CC4)cc3)nc3ccc(Cl)cc23)c1 | 35 | 0.672 µM | 0.021 µM | 32 | 0.735 µM | 0.012 µM | – | –
4 | C=CC(=O)Nc1cccc(Nc2nc(Nc3ccc(N4CCN(C)CC4)cc3)nc3cc(OC)c(OC)cc23)c1 | – | > 10 µM | 4.2 µM | – | > 10 µM | 4.23 µM | – | –
5 | C=CC(=O)Nc1cccc(Nc2nc(Nc3ccc(N4CCN(C)CC4)cc3)nc3ccc(I)cc23)c1 | – | > 10 µM | 5.76 µM | – | > 10 µM | 4.59 µM | – | –
6 | CN1CCN(c2ccc(Nc3nc(Nc4cccc(NC(=O)/C=C/c5ccccc5)c4)c4cc(Cl)ccc4n3)cc2)CC1 | – | > 10 µM | 2.31 µM | – | 3.22 µM | 1.01 µM | – | –
7 | C=CC(=O)Nc1cccc(Nc2nc(Nc3ccc(N4CCOCC4)cc3)nc3ccc(F)cc23)c1 | – | 8.52 µM | 2.02 µM | – | > 10 µM | 1.39 µM | – | –
8 | C=CC(=O)Nc1cccc(Nc2nc(Nc3ccc(N4CCC(N(C)C)CC4)cc3OC)nc3ccc(Cl)cc23)c1 | – | 3.59 µM | 0.561 µM | – | 5.8 µM | 0.159 µM | – | –
9 | C=CC(=O)Nc1cccc(Nc2nc(Nc3ccc(N4CCC(N5CCOCC5)CC4)cc3)nc3ccc(Cl)cc23)c1 | – | > 10 µM | 7.65 µM | – | > 10 µM | 5.72 µM | – | –
10 | C=CC(=O)Nc1cccc(Nc2nc(Nc3ccc(N4CCN(C)CC4)cc3OC)nc3ccc(Cl)cc23)c1 | – | 3.52 µM | 0.321 µM | – | 2.42 µM | 0.12 µM | – | –
11 | C=CC(=O)Nc1cccc(Nc2nc(Nc3ccc(N4CCN(C)CC4)cc3)nc3cccc(Cl)c23)c1 | – | 3.88 µM | 1.02 µM | – | 4.58 µM | 0.987 µM | – | –
12 | C=CC(=O)Nc1cccc(Nc2nc(Nc3ccc(N4CCN(C)CC4)cc3)nc3c2CN(C(=O)OC(C)(C)C)CC3)c1 | – | > 10 µM | 8.65 µM | – | > 10 µM | 7.81 µM | – | –
13 | C=CC(=O)Nc1cccc(Nc2nc(Nc3ccc(N4CCN(C)CC4)cc3)nc3ccc(OC)cc23)c1 | – | 3.99 µM | 2.98 µM | – | 4.82 µM | 1.76 µM | – | –
14 | C=CC(=O)Nc1cccc(Nc2nc(Nc3ccc(N4CCN(CC)CC4)cc3)nc3ccc(F)cc23)c1 | 62 | 1.52 µM | 0.025 µM | 60 | 1.55 µM | 0.011 µM | – | –
15 | C=CC(=O)Nc1cccc(Nc2nc(Nc3ccc(N4CCN(C)CC4)c(F)c3)nc3ccc(F)cc23)c1 | – | 2.47 µM | 0.035 µM | – | 1.28 µM | 0.02 µM | – | –
16 | C=CC(=O)Nc1cccc(Nc2nc(Nc3ccc(N4CCN(C)CC4)cc3)nc3ccc(C(F)(F)F)cc23)c1 | – | > 10 µM | 4.76 µM | – | 7.64 µM | 4.68 µM | – | –
17 | C=CC(=O)Nc1cccc(Nc2nc(Nc3ccc(N4CCN(C)CC4)cc3)nc3ccccc23)c1 | – | 9.85 µM | 2.32 µM | – | 6.79 µM | 2.32 µM | – | –
18 | C=CC(=O)Nc1cccc(Nc2nc(Nc3ccc(N4CCN(C)CC4)cc3)nc3c2CCN(C(=O)OCc2ccccc2)C3)c1 | – | > 10 µM | > 10 µM | – | > 10 µM | > 10 µM | – | –
